According to ChEMBL document CHEMBL5614437, “Antibacterial and Anti-Inflammatory Activity of Branched Peptides Derived from Natural Host Defense Sequences” (J Med Chem, 2024):
Values after ≈ are worked out from the molar mass of the structure shown. Active and inactive are the calls of the source. The calls are words filed in the database; no cut-off is given here. Where a SMILES comes first, the peptide text is derived from it. Bridges are numbered along the chain shown (N, C = ends). Roman numbers before positions name the chains, in order.

Key:
[1] = system: Escherichia coli; assay: Antibacterial activity against Escherichia coli TG1 incubated for 12 hrs by microdilution method; format: functional
[2] = system: Escherichia coli; assay: Antibacterial activity against Escherichia coli clinical isolate LC711/14 incubated for 12 hrs by microdilution method; format: functional
[3] = system: Pseudomonas aeruginosa; assay: Antibacterial activity against Pseudomonas aeruginosa ATCC 27853 incubated for 12 hrs by microdilution method; format: functional
[4] = system: Klebsiella pneumoniae; assay: Antibacterial activity against Klebsiella pneumoniae ATCC43816 incubated for 12 hrs by microdilution method; format: functional
[5] = system: Klebsiella pneumoniae; assay: Antibacterial activity against colistin-resistant Klebsiella pneumoniae incubated for 12 hrs by microdilution method; format: functional
[6] = system: Enterococcus faecalis; assay: Antibacterial activity against Enterococcus faecalis 51299 incubated for 12 hrs by microdilution method; format: functional
[7] = system: Staphylococcus aureus; assay: Antibacterial activity against Staphylococcus aureus USA300 incubated for 12 hrs by microdilution method; format: functional
[8] = system: Erythrocyte; assay: Hemolytic activity in human RBC assessed as hemolysis at ~15 uM incubated for 2 hrs by absorbance based plate reader analysis; format: toxicity, cell-based
[9] = Stability of compound in human serum at 180 uM measured after 4 hrs by HPLC-MS analysis; format: ADME, cell-free
[10] = Stability of compound in human serum at 180 uM measured after 24 hrs by HPLC-MS analysis; format: ADME, cell-free
[11] = system: Erythrocyte; assay: Hemolytic activity in human RBC assessed as hemolysis at […] incubated for 2 hrs by absorbance based plate reader analysis; format: toxicity, cell-based
[12] = system: Erythrocyte; assay: Hemolytic activity in human RBC assessed as hemolysis at 10 times of MIC incubated for 2 hrs by absorbance based plate reader analysis; format: toxicity, cell-based
[13] = system: RAW264.7; assay: Cytotoxicity against mouse RAW264.7 cells assessed as cell killing at 200 uM incubated for 4 to 24 hrs by crystal violet staining based analysis relative to control; format: toxicity; details: raw264.7, 200 µM, time 4-24 hrs
[14] = system: Lipopolysaccharide (LPS); assay: Binding affinity to biotin-tagged LPS (unknown origin) preincubated for 30 mins followed by compound addition and 30 mins of incubation with streptavidin-POD by ELISA based microplate spectrophotometer; format: subcellular; details: dose 1-10 µg/ml
[15] = system: Cell membrane; assay: Induction of cytoplasmic membrane permeabilization in Escherichia coli TG1 assessed as increase in fluorescence at 2 times of MIC measured after 10 mins by PI/Sytox green dye based analysis; format: cell membranes
[16] = system: Cell membrane; assay: Induction of cytoplasmic membrane permeabilization in Escherichia coli TG1 assessed as increase in fluorescence incubated for 100 to 120 mins by PI/Sytox green dye based analysis; details: dose 1.5-3 µM, time 100-120 min
[17] = system: Cell membrane; assay: Induction of cytoplasmic membrane permeabilization in Escherichia coli TG1 assessed as increase in fluorescence at MIC measured after 40 to 50 mins by PI/Sytox green dye based analysis; details: time 40-50 min
[18] = system: Cell membrane; assay: Induction of cytoplasmic membrane permeabilization in Escherichia coli TG1 assessed as wrinkling of membrane surface at 2 times of MIC measured after 30 to 60 mins by SEM analysis; details: time 30-60 min
[19] = system: Cell membrane; assay: Induction of cytoplasmic membrane permeabilization in Escherichia coli TG1 assessed as enlargement of bacterial cells at 2 times of MIC measured after 30 to 60 mins by SEM analysis; format: cell membranes; details: time 30-60 min
[20] = system: Cell membrane; assay: Induction of cytoplasmic membrane permeabilization in Escherichia coli TG1 assessed as loss of surface smoothness at 2 times of MIC measured after 30 to 60 mins by SEM analysis; details: time 30-60 min
[21] = system: Escherichia coli; assay: Antibiofilm activity against Escherichia coli TG1 assessed as inhibition of biofilm formation incubated for 24 hrs by absorbance based analysis; format: functional
[22] = system: Klebsiella pneumoniae; assay: Antibiofilm activity against Klebsiella pneumoniae ATCC43816 assessed as inhibition of biofilm formation incubated for 24 hrs by absorbance based analysis; format: functional
[23] = system: Escherichia coli; assay: Antibiofilm activity against 24 hrs preformed biofilm in Escherichia coli TG1 assessed as reduction in preformed biofilm incubated for 14 hrs by absorbance based analysis; format: functional
[24] = system: Klebsiella pneumoniae; assay: Antibiofilm activity against 24 hrs preformed biofilm in Klebsiella pneumoniae ATCC43816 assessed as reduction in preformed biofilm incubated for 14 hrs by absorbance based analysis; format: functional

## CC[C@H](C)[C@H](NC(=O)[C@H](CO)NC(=O)[C@H](CCCCN)NC(=O)[C@H](CC(C)C)NC(=O)[C@H](CCCCN)NC(=O)[C@@H](N)CC(C)C)C(=O)N[C@H](C(=O)N[C@@H](CO)C(=O)N[C@@H](Cc1c[nH]c2ccccc12)C(=O)NCCCC[C@@H]1NC(=O)[C@H](Cc2c[nH]c3ccccc23)NC(=O)[C@H](CO)NC(=O)[C@@H](NC(=O)[C@@H](NC(=O)[C@H](CO)NC(=O)[C@H](CCCCN)NC(=O)[C@H](CC(C)C)NC(=O)[C@H](CCCCN)NC(=O)[C@@H](N)CC(C)C)[C@@H](C)CC)C(C)NCCCC[C@H](NC(=O)[C@H](CC(C)C)NC(=O)[C@H](CCCCN)NC(=O)[C@@H](N)CC(C)C)C(=O)N[C@@H](CO)C(=O)N[C@@H]([C@@H](C)CC)C(=O)N[C@@H](C(C)C)C(=O)N[C@@H](CO)C(=O)N[C@@H](Cc2c[nH]c3ccccc23)C(=O)NCCCC[C@H](NC(=O)[C@H](Cc2c[nH]c3ccccc23)NC(=O)[C@H](CO)NC(=O)[C@@H](NC(=O)[C@@H](NC(=O)[C@H](CO)NC(=O)[C@H](CCCCN)NC(=O)[C@H](CC(C)C)NC(=O)[C@H](CCCCN)NC(=O)[C@@H](N)CC(C)C)[C@@H](C)CC)C(C)C)C(=O)N[C@H](C(N)=O)CCCCNC1=O)C(C)C (stereo partly specified)
[1]
  MIC: 12.5 µM (≈ 57.6 µg/mL)

## CC[C@H](C)[C@H](N)C(=O)N[C@@H](CC(N)=O)C(=O)N[C@@H](CC(C)C)C(=O)N[C@@H](CCCCN)C(=O)N[C@@H](CCCCN)C(=O)N[C@@H](CC(C)C)C(=O)N[C@@H](C)C(=O)N[C@@H](CCCCN)C(=O)N[C@@H](CC(C)C)C(=O)NCCCC[C@H](NC(=O)[C@H](CC(C)C)NC(=O)[C@H](CCCCN)NC(=O)[C@H](C)NC(=O)[C@H](CC(C)C)NC(=O)[C@H](CCCCN)NC(=O)[C@H](CCCCN)NC(=O)[C@H](CC(C)C)NC(=O)[C@H](CC(N)=O)NC(=O)[C@@H](N)[C@@H](C)CC)C(=O)NCCCC[C@H](NC(=O)[C@H](CCCCNC(=O)[C@H](CC(C)C)NC(=O)[C@H](CCCCN)NC(=O)[C@H](C)NC(=O)[C@H](CC(C)C)NC(=O)[C@H](CCCCN)NC(=O)[C@H](CCCCN)NC(=O)[C@H](CC(C)C)NC(=O)[C@H](CC(N)=O)NC(=O)[C@@H](N)[C@@H](C)CC)NC(=O)[C@H](CC(C)C)NC(=O)[C@H](CCCCN)NC(=O)[C@H](C)NC(=O)[C@H](CC(C)C)NC(=O)[C@H](CCCCN)NC(=O)[C@H](CCCCN)NC(=O)[C@H](CC(C)C)NC(=O)[C@H](CC(N)=O)NC(=O)[C@@H](N)[C@@H](C)CC)C(N)=O
[1]
  MIC: 0.7 µM (≈ 3.14 µg/mL)
[2]
  MIC: 6 µM (≈ 26.9 µg/mL)
[3]
  MIC: 3 µM (≈ 13.5 µg/mL)
[4]
  MIC: 12 µM (≈ 53.9 µg/mL)
[5]
  MIC: 6 µM (≈ 26.9 µg/mL)
[6]
  MIC: > 25 µM
[7]
  MIC: > 25 µM
[8]
  Activity: Toxic

## CC(C)C[C@H](NC(=O)[C@@H](NC(=O)[C@@H](NC(=O)[C@@H](N)CO)[C@@H](C)O)C(C)C)C(=O)N[C@H](C(=O)N[C@@H](CO)C(=O)N[C@@H](CCCCN)C(=O)N[C@@H](Cc1ccc(O)cc1)C(=O)N[C@@H](CCCNC(=N)N)C(=O)NCCCC[C@H](NC(=O)[C@H](CCCNC(=N)N)NC(=O)[C@H](Cc1ccc(O)cc1)NC(=O)[C@H](CCCCN)NC(=O)[C@H](CO)NC(=O)[C@@H](NC(=O)[C@H](CC(C)C)NC(=O)[C@@H](NC(=O)[C@@H](NC(=O)[C@@H](N)CO)[C@@H](C)O)C(C)C)[C@@H](C)O)C(=O)NCCCC[C@H](NC(=O)[C@H](CCCCNC(=O)[C@H](CCCNC(=N)N)NC(=O)[C@H](Cc1ccc(O)cc1)NC(=O)[C@H](CCCCN)NC(=O)[C@H](CO)NC(=O)[C@@H](NC(=O)[C@H](CC(C)C)NC(=O)[C@@H](NC(=O)[C@@H](NC(=O)[C@@H](N)CO)[C@@H](C)O)C(C)C)[C@@H](C)O)NC(=O)[C@H](CCCNC(=N)N)NC(=O)[C@H](Cc1ccc(O)cc1)NC(=O)[C@H](CCCCN)NC(=O)[C@H](CO)NC(=O)[C@@H](NC(=O)[C@H](CC(C)C)NC(=O)[C@@H](NC(=O)[C@@H](NC(=O)[C@@H](N)CO)[C@@H](C)O)C(C)C)[C@@H](C)O)C(N)=O)[C@@H](C)O (HELM PEPTIDE1{S.T.V.L.T.S.K.Y.R.K.K.[am]}|PEPTIDE2{S.T.V.L.T.S.K.Y.R.K}|PEPTIDE3{S.T.V.L.T.S.K.Y.R}|PEPTIDE4{S.T.V.L.T.S.K.Y.R}$PEPTIDE1,PEPTIDE4,10:R3-9:R2|PEPTIDE1,PEPTIDE2,11:R3-10:R2|PEPTIDE2,PEPTIDE3,10:R3-9:R2$$$V2.0)
[1]
  MIC: 25 µM (≈ 114 µg/mL)

## H-GRFKRFRKKL-OH
[9]
  Stability: Stable
[10]
  Stability: Unstable

## H-KKLLGKNWKLM-OH
[9]
  Stability: Unstable
[10]
  Stability: Unstable

## H-LLKKVLKAAAK-OH
[9]
  Stability: Unstable
[10]
  Stability: Unstable

## H-TLLKKVLKAAAK-OH
[9]
  Stability: Stable
[10]
  Stability: Unstable

## I: H-ALLKRIKTLLKK-NH2 / II: H-ALLKRIKTLLK / III: H-ALLKRIKTLL / IV: H-ALLKRIKTLL (amide I:11-IV:C, I:12-II:C, II:11-III:C)
[1]
  MIC: 25 µM

## I: H-GIIDIAKKLFESWKK-NH2 / II: H-GIIDIAKKLFESWK / III: H-GIIDIAKKLFESW / IV: H-GIIDIAKKLFESW (amide I:14-IV:C, I:15-II:C, II:14-III:C)
[1]
  MIC: 12.5 µM

## I: H-INLKAIAALAKKLLKK-NH2 / II: H-INLKAIAALAKKLLK / III: H-INLKAIAALAKKLL / IV: H-INLKAIAALAKKLL (amide I:15-IV:C, I:16-II:C, II:15-III:C)
[1]
  MIC: 12.5 µM

## I: H-KLLKFIKTLLKK-NH2 / II: H-KLLKFIKTLLK / III: H-KLLKFIKTLL / IV: H-KLLKFIKTLL (amide I:11-IV:C, I:12-II:C, II:11-III:C)
[1]
  MIC: 12.5 µM

## I: H-KLLKRIKTLLKK-NH2 / II: H-KLLKRIKTLLK / III: H-KLLKRIKTLL / IV: H-KLLKRIKTLL (amide I:11-IV:C, I:12-II:C, II:11-III:C)
[1]
  MIC: 6 µM
[2]
  MIC: 6 µM
[3]
  MIC: 6 µM
[4]
  MIC: 6 µM
[5]
  MIC: 12.5 µM
[6]
  MIC: 25 µM
[7]
  MIC: 3 µM
[11]
  Activity: Toxic

## I: H-KRLWHKVGPFKK-NH2 / II: H-KRLWHKVGPFK / III: H-KRLWHKVGPF / IV: H-KRLWHKVGPF (amide I:11-IV:C, I:12-II:C, II:11-III:C)
[1]
  MIC: 12.5 µM

## I: H-LLKKVLKAAAKKK-NH2 / II: H-LLKKVLKAAAKK / III: H-LLKKVLKAAAK / IV: H-LLKKVLKAAAK (amide I:12-IV:C, I:13-II:C, II:12-III:C)
[1]
  MIC: 1.5 µM
[2]
  MIC: 6 µM
[3]
  MIC: 6 µM
[4]
  MIC: 12.5 µM
[5]
  MIC: > 25 µM
[6]
  MIC: > 25 µM
[7]
  MIC: > 25 µM
[12]
  Activity: Non-Toxic
[13]
  Activity: 100%
[14]
  Activity: Dose-Dependent Effect
[15]
  Activity: Active
[16]
  Activity: Dose-Dependent Effect
[17]
  Activity: Active
[18]
  Activity: Active
[19]
  Activity: Active
[20]
  Activity: Active
[9]
  Stability: Stable
[10]
  Stability: Stable
[21]
  IC20: 6 µM
[22]
  IC20: > 50 µM
[23]
  MBIC80: 50 µM
[24]
  MBIC80: 50 µM

## I: H-LSAAHRLAIGRRKK-NH2 / II: H-LSAAHRLAIGRRK / III: H-LSAAHRLAIGRR / IV: H-LSAAHRLAIGRR (amide I:13-IV:C, I:14-II:C, II:13-III:C)
[1]
  MIC: 12.5 µM

## I: H-LSAAHSLAIGRRKK-NH2 / II: H-LSAAHSLAIGRRK / III: H-LSAAHSLAIGRR / IV: H-LSAAHSLAIGRR (amide I:13-IV:C, I:14-II:C, II:13-III:C)
[1]
  MIC: 25 µM

## I: H-LSAARSLAIGRRKK-NH2 / II: H-LSAARSLAIGRRK / III: H-LSAARSLAIGRR / IV: H-LSAARSLAIGRR (amide I:13-IV:C, I:14-II:C, II:13-III:C)
[1]
  MIC: 12.5 µM
